This experiment addresses Recombinant human LSD1 (Homo sapiens, UniProt O60341). Briefly: LSD1 inhibition assay (HTRF LSD1 Histone H3K4 mono-demethylation assay, me1->me0). Format: biochemical. Particulars: 20 nM recombinant human LSD1, 95 nM H3K4(me1) biotinylated peptide, 15 min preincubation, 60 min at 25° C., read-out: LSD1 inhibition IC50 (nM range). A digest of the protocol: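 Recombinant human LSD1 (20 nM) pre-incubated 15 min with 10 semi-log compound doses, then 95 nM biotinylated H3K4me1 peptide for 60 min at 25 °C in pH 8.5 Tris/NaCl buffer with 10 μM FAD, 1 mM DTT. HTRF me0-antibody read after 90 min; IC50 from 4-parameter fit.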

SMILES strings stand for the structures. Where a name gives a salt, the structure may show the parent alone.

Turning to `N#Cc1ccc(-c2cccc(CN3CC4CCC(C3)N4)c2C2CC2)cc1F` [Example 210, 2'-cyclopropyl-3'-({3,8-diazabicyclo[3.2.1]octan-3-yl}methyl)-3-fluoro-[1,1'-biphenyl]-4-carbonitrile], the IC50 was 10 to 25 nM.

For the compound `COCC1CCN(c2ccc(CC3CNCCO3)cc2-c2ccc(C#N)c(F)c2)CC1` (centres unmarked) [Example 67, 3-fluoro-2′-[4-(methoxymethyl)piperidin-1-yl]-5′-[(morpholin-2-yl)methyl]-[1,1′-biphenyl]-4-carbonitrile], the concentration for half-maximal inhibition (IC50) lay in the range of 25 to 100 nM.

For the compound `N#Cc1ccc(-c2cc(CN3[C@@H]4CC[C@H]3[C@@H](N)C4)ccc2OCCC(F)F)cc1F` (racemic) [Example 315, 5'-{[(1S,2S,4R)-2-amino-7-azabicyclo[2.2.1]heptan-7-yl]methyl}-2'-(3,3-difluoropropoxy)-3-fluoro-[1,1'-biphenyl]-4-carbonitrile], the IC50 was under 10 nM.

For the compound `CN[C@H]1C[C@H]2CC[C@@H]1N2Cc1cccc(-c2ccc(C#N)cc2)c1-c1ccns1` (single isomer, unassigned) [Example 182], the IC50 is under 10 nM.

For the compound `N#Cc1ccc(-c2cccc(CN3CC4CCC3C(N)C4)c2C2CC2)cc1F` (centres unmarked) [Example 227, 3'-({6-amino-2-azabicyclo[2.2.2]octan-2-yl}methyl)-2'-cyclopropyl-3-fluoro-[1,1'-biphenyl]-4-carbonitrile], the IC50 fell in the range of 25 to 100 nM.

As for `N#Cc1ccc(-c2cc(CN3[C@@H]4CC[C@H]3[C@@H](N)C4)ccc2-c2ccns2)cc1F` (racemic) [Example 314, 5'-{[(1S,2S,4R)-2-amino-7-azabicyclo[2.2.1]heptan-7-yl]methyl}-3-fluoro-2'-(1,2-thiazol-5-yl)-[1,1'-biphenyl]-4-carbonitrile], the IC50 is 10 to 25 nM.

With `COCC1(O)CCCN(c2ccc(CC3CNCCO3)cc2-c2ccc(C#N)c(F)c2)CC1` (centres unmarked) [Example 152, 3-fluoro-2′-[4-hydroxy-4-(methoxymethyl)azepan-1-yl]-5′-[(morpholin-2-yl)methyl]-[1,1′-biphenyl]-4-carbonitrile], the IC50 lay within 100 to 1000 nM.

`N#Cc1ccc(-c2cc(CC3CNCCO3)ccc2N2CCCOCC2)cc1F` (centres unmarked) [Example 143, 3-fluoro-5'-[(morpholin-2-yl)methyl]-2'-(1,4-oxazepan-4-yl)-[1,1'-biphenyl]-4-carbonitrile]: the IC50 was in the range of 100 to 1000 nM.

`N#Cc1ccc(-c2cccc(CN3CC(F)(F)[C@@]34CCNC4)c2Cl)cc1F` [Example 337, 2'-chloro-3'-{[(4S)-3,3-difluoro-1,6-diazaspiro[3.4]octan-1-yl]methyl}-3-fluoro-[1,1'-biphenyl]-4-carbonitrile]: the IC50 is over 1000 nM.

Consider `N#Cc1ccc(-c2cccc(CC3CNCCO3)c2-c2ocnc2F)cc1` (stereo in doubt) [Example 2, 2′-(4-fluoro-1,3-oxazol-5-yl)-3′-{[(2R)-morpholin-2-yl]methyl}-[1,1′-biphenyl]-4-carbonitrile], for which the IC50 was in the range of 10 to 25 nM.

As for `CC(C)Oc1ccc(CN2[C@@H]3CC[C@H]2[C@@H](N)C3)cc1-c1ccc(C#N)c(F)c1` (racemic) [Example 250, 5'-{[(1S,2S,4R)-2-amino-7-azabicyclo[2.2.1]heptan-7-yl]methyl}-3-fluoro-2'-(propan-2-yloxy)-[1,1'-biphenyl]-4-carbonitrile], the half-maximal inhibitory concentration (IC50) lay in the range of 10 to 25 nM.

Consider `N#Cc1ccc(-c2cccc(CC3CNCCO3)c2N2CCC2)cc1` (centres unmarked) [Example 50, 2′-(azetidin-1-yl)-3′-[(morpholin-2-yl)methyl]-[1,1′-biphenyl]-4-carbonitrile], for which the IC50 is 100 to 1000 nM.

As for `N#Cc1ccc(-c2cccc(CN3CCC[C@H]4NCC[C@H]43)c2-c2cncs2)cc1F` (racemic) [Example 279, 3'-{[(3aR,7aR)-otcahydro-1H-pyrrolo[3,2-b]pyridin-4-yl]methyl}-3-fluoro-2'-(1,3-thiazol-5-yl)-[1,1'-biphenyl]-4-carbonitrile], the IC50 fell in the range of 10 to 25 nM.

Consider `N#Cc1ccc(-c2cccc(C[C@@H]3CNCCO3)c2-c2ccns2)cc1F` [Example 28, 3-fluoro-3′-{[(2R)-morpholin-2-yl]methyl}-2′-(1,2-thiazol-5-yl)-[1,1′-biphenyl]-4-carbonitrile], for which the IC50 is under 10 nM.

For the compound `CN1CCN(Cc2ccc(N3CCC3)c(-c3ccc(C#N)c(F)c3)c2)CC1` [Example 296, 2'-(azetidin-1-yl)-3-fluoro-5'-[(4-methylpiperazin-1-yl)methyl]-[1,1'-biphenyl]-4-carbonitrile], the IC50 was over 1000 nM.

Turning to `N#Cc1ccc(-c2cccc(CC3CNCCO3)c2N2CC(F)C2)cc1F` (centres unmarked) [Example 40, 3-fluoro-2′-(3-fluoroazetidin-1-yl)-3′-[(morpholin-2-yl)methyl]-[1,1′-biphenyl]-4-carbonitrile], the IC50 was in the range of 100 to 1000 nM.

Consider `COC1CN(c2ccc(CC3CNCCO3)cc2-c2ccc(C#N)c(F)c2)C1` (centres unmarked) [Example 140, 3-fluoro-2′-(3-methoxyazetidin-1-yl)-5′-[(morpholin-2-yl)methyl]-[1,1′-biphenyl]-4-carbonitrile], for which the 50% inhibitory concentration (IC50) is over 1000 nM.

Turning to `N#Cc1ccc(-c2cccc(CN3[C@@H]4CC[C@H]3C[C@H](N)C4)c2C2CC2)cc1F` [Example 321, 3'-{[(1R,3S,5S)-3-amino-8-azabicyclo[3.2.1]octan-8-yl]methyl}-2'-cyclopropyl-3-fluoro-[1,1'-biphenyl]-4-carbonitrile], the IC50 was in the range of 10 to 25 nM.

In the case of `N#Cc1ccc(-c2cc(CN3[C@@H]4CC[C@H]3[C@@H](N)C4)ccc2OCC(F)(F)F)cc1F` (racemic) [Example 316, 5'-{[(1S,2S,4R)-2-amino-7-azabicyclo[2.2.1]heptan-7-yl]methyl}-3-fluoro-2'-(2,2,2-trifluoroethoxy)-[1,1'-biphenyl]-4-carbonitrile], the IC50 lay within 10 to 25 nM.

For `CN(C[C@H]1CCCOC1)c1ccc(CC2CNCCO2)cc1-c1ccc(C#N)c(F)c1` (stereo partly drawn) [Example 120, 3-fluoro-2′-[methyl({[(3R)-oxan-3-yl]methyl})amino]-5′-[(morpholin-2-yl)methyl]-[1,1′-biphenyl]-4-carbonitrile], the IC50 is 100 to 1000 nM.

In the case of `CCOCC1(O)CCN(c2ccc(CC3CNCCO3)cc2-c2ccc(C#N)c(F)c2)CC1` (centres unmarked) [Example 63, 2′-[4-(ethoxymethyl)-4-hydroxypiperidin-1-yl]-3-fluoro-5′-[(morpholin-2-yl)methyl]-[1,1′-biphenyl]-4-carbonitrile], the IC50 was in the range of 100 to 1000 nM.

Take `N#Cc1ccc(-c2cccc(CN3[C@@H]4CC[C@H]3[C@@H](N)C4)c2C2CC2)cc1F` (racemic) [Example 176, 3'-{[(1S,2S,4R)-2-amino-7-azabicyclo[2.2.1]heptan-7-yl]methyl}-2'-cyclopropyl-3-fluoro-[1,1'-biphenyl]-4-carbonitrile]: the IC50 is 25 to 100 nM.

As for `COc1ccc(-c2c(C)cc(CC3CNCCO3)cc2-c2ccc(C#N)c(F)c2)cn1` (centres unmarked) [Example 85, 3-fluoro-2′-(6-methoxypyridin-3-yl)-3′-methyl-5′-[(morpholin-2-yl)methyl]-[1,1′-biphenyl]-4-carbonitrile], the IC50 fell in the range of 100 to 1000 nM.

For `N#Cc1ccc(-c2cccc(CN3[C@@H]4CC[C@H]3[C@@H](N)C4)c2C(F)F)cc1F` (racemic) [Example 301, 3'-{[(1S,2S,4R)-2-amino-7-azabicyclo[2.2.1]heptan-7-yl]methyl}-2'-(difluoromethyl)-3-fluoro-[1,1'-biphenyl]-4-carbonitrile], the IC50 lay within 25 to 100 nM.

Turning to `COCC1CN(c2ccc(CC3CNCCO3)cc2-c2ccc(C#N)c(F)c2)C1` (centres unmarked) [Example 55, 3-fluoro-2′-[3-(methoxymethyl)azetidin-1-yl]-5′-[(morpholin-2-yl)methyl]-[1,1′-biphenyl]-4-carbonitrile], the IC50 was in the range of 100 to 1000 nM.

With `N#Cc1ccc(-c2ccc(F)c(CN3C[C@]4(N)CC[C@H]3C4)c2Cl)cc1F` [Example 208, 3'-{[(1S,4S)-4-amino-2-azabicyclo[2.2.1]heptan-2-yl]methyl}-2'-chloro-3,4'-difluoro-[1,1'-biphenyl]-4-carbonitrile], the IC50 was 25 to 100 nM.

Consider `N#Cc1ccc(-c2cccc(CN3CCNCC(F)(F)C3)c2Cl)cc1F` [Example 338, 2'-chloro-3'-[(6,6-difluoro-1,4-diazepan-1-yl)methyl]-3-fluoro-[1,1'-biphenyl]-4-carbonitrile], for which the IC50 was over 1000 nM.

As for `N#Cc1ccc(-c2cccc(C[C@H]3CNCCO3)c2-c2ccns2)cc1` (single isomer, unassigned) [Example 5, hydrochloride], the IC50 was 10 to 25 nM.

For `N#Cc1ccc(-c2cc(CN3[C@@H]4CC[C@H]3[C@@H](N)C4)ccc2OC(F)F)cc1F` (racemic) [Example 310, 5'-{[(1S,2S,4R)-2-amino-7-azabicyclo[2.2.1]heptan-7-yl]methyl}-2'-(difluoromethoxy)-3-fluoro-[1,1'-biphenyl]-4-carbonitrile], the IC50 was 10 to 25 nM.

Consider `N#Cc1ccc(-c2cccc(CC3CNCCO3)c2N2CCC2)cc1F` (centres unmarked) [Example 21, 2′-(azetidin-1-yl)-3-fluoro-3′-[(morpholin-2-yl)methyl]-[1,1′-biphenyl]-4-carbonitrile], for which the IC50 was in the range of 100 to 1000 nM.

`CC1(N)CCN(Cc2cccc(-c3ccc(C#N)c(F)c3)c2C2CC2)CC1` [Example 205, 3'-[(4-amino-4-methylpiperidin-1-yl)methyl]-2'-cyclopropyl-3-fluoro-[1,1'-biphenyl]-4-carbonitrile]: the IC50 lay in the range of 25 to 100 nM.

Turning to `N#Cc1ccc(-c2cccc(Cn3cc4c(n3)CNCC4)c2-c2cncs2)cc1F` [Example 236, 3-fluoro-3'-({2H,4H,5H,6H,7H-pyrazolo[3,4-c]pyridin-2-yl}methyl)-2'-(1,3-thiazol-5-yl)-[1,1'-biphenyl]-4-carbonitrile], the IC50 lay within 25 to 100 nM.
